Measurements from the NIST ThermoML archive (doi:10.1021/je4004806).

Key:
[1] = 101 kPa, Liquid; for viscosity: Capillary tube (Ostwald / Ubbelohde) method; for mass density: Vibrating tube method
[2] = xn = mol fraction of the nth substance listed; conditions: 101 kPa, Liquid; for mass density: Vibrating tube method; for viscosity: Capillary tube (Ostwald / Ubbelohde) method

CCCCCCCC [octane]
[1]
Conditions | mass density [kg/m3] | viscosity [mPa·s]
293.15 K | 702.54 | 0.545
298.15 K | 698.49 | 0.513
303.15 K | 694.44 | 0.485
308.15 K | 690.37 | 0.459
313.15 K | 686.29 | 0.433
318.15 K | 682.19 | 0.412
323.15 K | 678.08 | 0.392

CCO [ethanol] + CCCCCCCC
[2], x2 = 0
Conditions | mass density [kg/m3]
293.15 K | 790.91
298.15 K | 786.6
303.15 K | 782.28
308.15 K | 777.94
313.15 K | 773.56
318.15 K | 769.15
323.15 K | 764.69

CCCCO [butan-1-ol]
[1]
Conditions | mass density [kg/m3] | viscosity [mPa·s]
293.15 K | 809.53 | 2.968
298.15 K | 805.7 | 2.602
303.15 K | 801.86 | 2.292
308.15 K | 797.99 | 2.025
313.15 K | 794.1 | 1.796
318.15 K | 790.18 | 1.59
323.15 K | 786.21 | 1.414

CCCO [propan-1-ol] + CCCCCCCC
[2], x2 = 0
Conditions | mass density [kg/m3] | viscosity [mPa·s]
293.15 K | 803.84 | 2.21
298.15 K | 799.85 | 1.962
303.15 K | 795.81 | 1.746
308.15 K | 791.74 | 1.556
313.15 K | 787.64 | 1.386
318.15 K | 783.55 | 1.242
323.15 K | 779.32 | 1.115

CCCCCCCC [octane] + CCCCCO
[2], x1 = 1
Conditions | mass density [kg/m3] | viscosity [mPa·s]
293.15 K | 702.54 | 0.545
298.15 K | 698.49 | 0.513
303.15 K | 694.44 | 0.485
308.15 K | 690.37 | 0.459
313.15 K | 686.29 | 0.433
318.15 K | 682.19 | 0.412
323.15 K | 678.08 | 0.392

CCO [ethanol]
[1]
Conditions | mass density [kg/m3]
293.15 K | 790.91
298.15 K | 786.6
303.15 K | 782.28
308.15 K | 777.94
313.15 K | 773.56
318.15 K | 769.15
323.15 K | 764.69

CCCO [propan-1-ol]
[1]
Conditions | mass density [kg/m3] | viscosity [mPa·s]
293.15 K | 803.84 | 2.21
298.15 K | 799.85 | 1.962
303.15 K | 795.81 | 1.746
308.15 K | 791.74 | 1.556
313.15 K | 787.64 | 1.386
318.15 K | 783.55 | 1.242
323.15 K | 779.32 | 1.115

CCCCO [butan-1-ol] + CCCCCCCC
[2], x2 = 0
Conditions | mass density [kg/m3] | viscosity [mPa·s]
293.15 K | 809.53 | 2.968
298.15 K | 805.7 | 2.602
303.15 K | 801.86 | 2.292
308.15 K | 797.99 | 2.025
313.15 K | 794.1 | 1.796
318.15 K | 790.18 | 1.59
323.15 K | 786.21 | 1.414

CCCCCCCC [octane] + CCO
mass density [kg/m3], [2]
Conditions | x1 = 0.1008 | x1 = 0.2015 | x1 = 0.2998 | x1 = 0.4008 | x1 = 0.4663 | x1 = 0.6008 | x1 = 0.6991 | x1 = 0.7931 | x1 = 0.9031 | x1 = 1
293.15 K | 766.88 | 750.57 | 738.83 | 729.83 | 724.97 | 716.77 | 712.03 | 708.31 | 704.73 | 702.54
298.15 K | 762.56 | 746.27 | 734.53 | 725.55 | 720.68 | 712.52 | 707.81 | 704.12 | 700.59 | 698.49
303.15 K | 758.23 | 741.94 | 730.2 | 721.22 | 716.37 | 708.23 | 703.55 | 699.9 | 696.43 | 694.44
308.15 K | 753.87 | 737.57 | 725.83 | 716.86 | 712.02 | 703.91 | 699.27 | 695.65 | 692.24 | 690.37
313.15 K | 749.47 | 733.15 | 721.42 | 712.46 | 707.63 | 699.56 | 694.94 | 691.37 | 688.03 | 686.29
318.15 K | 745.03 | 728.69 | 716.96 | 708 | 703.19 | 695.15 | 690.58 | 687.05 | 683.78 | 682.19
323.15 K | 740.54 | 724.18 | 712.45 | 703.5 | 698.69 | 690.7 | 686.17 | 682.7 | 679.51 | 678.08

CCCCCO [pentan-1-ol]
[1]
Conditions | mass density [kg/m3] | viscosity [mPa·s]
293.15 K | 814.59 | 4.042
298.15 K | 810.93 | 3.518
303.15 K | 807.24 | 3.06
308.15 K | 803.53 | 2.659
313.15 K | 799.79 | 2.334
318.15 K | 796.03 | 2.042
323.15 K | 792.23 | 1.805
